According to patent publication US20260092071A1, “COMPOUNDS AND COMPOSITIONS AS SMARCA2/4 DEGRADERS AND USES THEREOF” (REGENTS OF THE UNIVERSITY OF MICHIGAN, priority 2022, published 2026):
Read-outs that look alike come from different tables or passages of the source.

Legend:
SMARCA4 = SMARCA4 (Homo sapiens, UniProt P51532); assay: HiBiT assay for protein degradation, Hela SMARCA4-HiBiT cells (A series); format: cell-based; parameters: fuse HiBiT to the carboxy terminus of SMARCA2 (Promega CS302365) or SMARCA4 (Promega CS3023225); host or cells: HeLa (CRISPR/Cas9 HiBiT knock-in); conditions: for DC50: read-out: SMARC A4 Hela HiBit DC50
SMARCA4, sequence (P51532 whole entry): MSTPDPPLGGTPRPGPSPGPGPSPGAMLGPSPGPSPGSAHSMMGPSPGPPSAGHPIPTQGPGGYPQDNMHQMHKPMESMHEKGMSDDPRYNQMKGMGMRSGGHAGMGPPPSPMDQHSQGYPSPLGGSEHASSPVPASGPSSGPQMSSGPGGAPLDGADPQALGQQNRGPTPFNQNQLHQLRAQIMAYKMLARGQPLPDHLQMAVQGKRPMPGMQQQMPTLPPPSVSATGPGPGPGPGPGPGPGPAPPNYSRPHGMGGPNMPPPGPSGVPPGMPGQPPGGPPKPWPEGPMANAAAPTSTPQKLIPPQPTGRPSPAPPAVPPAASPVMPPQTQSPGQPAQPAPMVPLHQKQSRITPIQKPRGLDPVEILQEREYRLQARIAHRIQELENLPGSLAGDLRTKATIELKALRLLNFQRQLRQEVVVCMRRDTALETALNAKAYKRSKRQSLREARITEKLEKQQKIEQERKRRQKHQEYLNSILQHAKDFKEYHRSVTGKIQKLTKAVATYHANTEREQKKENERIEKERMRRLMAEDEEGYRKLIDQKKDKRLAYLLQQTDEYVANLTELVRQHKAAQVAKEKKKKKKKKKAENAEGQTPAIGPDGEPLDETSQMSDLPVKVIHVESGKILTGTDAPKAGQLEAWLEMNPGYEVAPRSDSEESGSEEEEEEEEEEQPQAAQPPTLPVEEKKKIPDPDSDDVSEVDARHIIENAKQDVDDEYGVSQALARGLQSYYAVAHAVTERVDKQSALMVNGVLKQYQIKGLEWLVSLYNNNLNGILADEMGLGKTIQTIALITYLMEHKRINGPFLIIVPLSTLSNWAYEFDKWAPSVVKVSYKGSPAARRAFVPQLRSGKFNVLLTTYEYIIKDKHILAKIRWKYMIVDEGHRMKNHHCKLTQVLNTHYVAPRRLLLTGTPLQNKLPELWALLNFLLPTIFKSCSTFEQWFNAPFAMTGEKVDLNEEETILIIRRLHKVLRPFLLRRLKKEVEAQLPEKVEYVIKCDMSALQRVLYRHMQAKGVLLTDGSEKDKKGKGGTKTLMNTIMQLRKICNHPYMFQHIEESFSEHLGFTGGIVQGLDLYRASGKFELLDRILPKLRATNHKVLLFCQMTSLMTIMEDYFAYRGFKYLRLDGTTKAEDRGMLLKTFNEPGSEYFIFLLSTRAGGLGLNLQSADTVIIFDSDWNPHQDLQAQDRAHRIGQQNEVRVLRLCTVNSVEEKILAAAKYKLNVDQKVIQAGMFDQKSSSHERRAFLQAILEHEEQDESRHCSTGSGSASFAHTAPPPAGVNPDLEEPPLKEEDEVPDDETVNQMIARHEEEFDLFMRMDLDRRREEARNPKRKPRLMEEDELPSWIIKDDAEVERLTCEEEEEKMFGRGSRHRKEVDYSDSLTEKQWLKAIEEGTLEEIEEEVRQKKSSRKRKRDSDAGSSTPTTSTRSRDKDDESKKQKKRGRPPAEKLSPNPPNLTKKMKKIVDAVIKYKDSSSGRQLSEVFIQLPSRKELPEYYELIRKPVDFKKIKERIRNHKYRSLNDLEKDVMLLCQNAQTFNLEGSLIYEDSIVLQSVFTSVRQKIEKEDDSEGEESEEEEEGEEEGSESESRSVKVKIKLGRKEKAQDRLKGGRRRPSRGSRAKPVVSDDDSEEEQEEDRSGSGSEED
Procedure, shortened: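 SMARCA4 degradation was measured in HeLa cells in which HiBiT had been knocked into the SMARCA4 carboxy terminus via CRISPR/Cas9 (Promega CS3023225). Cells were maintained in DMEM with FBS and penicillin-streptomycin. At the end of treatment, SMARCA4 levels were read by lytic HiBiT luminescence (Nano-Glo®, Promega N3050), and data were analyzed with GraphPad Prism.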

SMARCA2 = SMARCA2 (Homo sapiens, UniProt P51531); assay: HiBiT assay for protein degradation, Hela SMARCA2-HiBiT cells (A series); format: cell-based; parameters: Hela cells were genetically modified via CRISPR/Cas9 to fuse HiBiT to the carboxy terminus of SMARCA2; host or cells: HeLa (CRISPR/Cas9 HiBiT knock-in); conditions: for DC50: read-out: SMARC A2 Hela HiBit DC50; for Dmax: read-out: SMARC A2 Hela HiBit Dmax (%);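 as to SMARC A2 Hela HiBit Dmax (%): 24 h compound treatment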
SMARCA2, sequence (P51531 whole entry): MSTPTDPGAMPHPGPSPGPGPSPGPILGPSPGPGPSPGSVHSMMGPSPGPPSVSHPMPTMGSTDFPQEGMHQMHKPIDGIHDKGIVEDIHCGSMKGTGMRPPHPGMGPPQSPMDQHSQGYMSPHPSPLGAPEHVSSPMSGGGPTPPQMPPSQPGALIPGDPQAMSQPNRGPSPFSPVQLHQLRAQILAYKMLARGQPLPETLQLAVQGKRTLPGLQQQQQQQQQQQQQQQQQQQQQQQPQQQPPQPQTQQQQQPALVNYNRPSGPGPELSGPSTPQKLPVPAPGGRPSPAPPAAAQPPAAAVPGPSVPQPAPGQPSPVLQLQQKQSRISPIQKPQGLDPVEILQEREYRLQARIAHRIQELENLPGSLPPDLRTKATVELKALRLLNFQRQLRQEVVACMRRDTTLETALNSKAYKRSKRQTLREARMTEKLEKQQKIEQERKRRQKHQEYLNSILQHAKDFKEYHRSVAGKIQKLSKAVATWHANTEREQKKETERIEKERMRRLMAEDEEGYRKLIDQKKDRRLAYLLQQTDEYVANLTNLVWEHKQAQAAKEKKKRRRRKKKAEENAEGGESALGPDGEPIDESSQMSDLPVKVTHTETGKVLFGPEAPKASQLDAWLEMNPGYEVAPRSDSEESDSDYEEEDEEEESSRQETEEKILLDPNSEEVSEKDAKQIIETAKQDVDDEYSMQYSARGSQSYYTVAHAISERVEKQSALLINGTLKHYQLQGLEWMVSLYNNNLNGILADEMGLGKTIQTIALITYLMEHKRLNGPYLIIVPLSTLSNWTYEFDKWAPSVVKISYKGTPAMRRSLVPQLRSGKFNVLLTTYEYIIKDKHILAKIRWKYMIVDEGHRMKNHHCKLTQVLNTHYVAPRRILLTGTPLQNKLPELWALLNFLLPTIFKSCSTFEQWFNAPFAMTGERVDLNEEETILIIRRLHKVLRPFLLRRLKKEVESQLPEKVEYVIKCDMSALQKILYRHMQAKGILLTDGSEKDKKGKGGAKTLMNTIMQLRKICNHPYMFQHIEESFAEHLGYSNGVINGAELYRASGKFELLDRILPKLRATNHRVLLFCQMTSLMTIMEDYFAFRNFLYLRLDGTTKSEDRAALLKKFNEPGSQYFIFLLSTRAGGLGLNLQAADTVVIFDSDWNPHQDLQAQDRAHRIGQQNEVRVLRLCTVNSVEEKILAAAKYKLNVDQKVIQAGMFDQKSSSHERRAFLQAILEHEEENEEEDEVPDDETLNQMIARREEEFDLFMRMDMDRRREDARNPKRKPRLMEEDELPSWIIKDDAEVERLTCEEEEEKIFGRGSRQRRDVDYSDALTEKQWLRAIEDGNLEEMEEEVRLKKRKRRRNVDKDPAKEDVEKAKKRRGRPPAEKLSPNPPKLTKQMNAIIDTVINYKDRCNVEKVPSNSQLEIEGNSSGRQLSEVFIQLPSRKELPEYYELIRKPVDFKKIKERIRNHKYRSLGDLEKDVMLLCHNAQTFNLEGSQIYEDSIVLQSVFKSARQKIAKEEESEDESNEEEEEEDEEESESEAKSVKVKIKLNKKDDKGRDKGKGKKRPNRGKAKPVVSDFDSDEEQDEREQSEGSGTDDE
Procedure, shortened: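 SMARCA2 degradation was measured in HeLa cells whose endogenous SMARCA2 carries a carboxy-terminal HiBiT tag introduced by CRISPR/Cas9 (Promega CS302365). Cells were maintained in DMEM with FBS and penicillin-streptomycin. SMARCA2 levels were read at the end of the experiment by Nano-Glo® HiBiT lytic luminescence (Promega N3050) and analyzed in GraphPad Prism.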

[1] = Hela SMARCA4-HiBiT cells, 24 hours treatment
[2] = Hela SMARCA2-HiBiT cells, 24 hours treatment
[3] = Hela SMARCA4-HiBiT cells, 24 hours treatment, read-out: SMARC A4 Hela HiBit Dmax
[4] = Hela SMARCA4-HiBiT cells, 24 hours treatment, read-out: SMARC A4 Hela HiBit Dmax(%)

Cc1ncsc1-c1ccc([C@H](C)NC(=O)[C@@H]2C[C@@H](O)CN2C(=O)[C@@H](n2cc([C@H]3C[C@H](CN4CCC(c5ccc6c(c5)C5(CCCCC5)c5nc(=O)c7c(Br)cccc7n5-6)CC4)C3)nn2)C(C)(C)C)cc1 [Compound A61, (2S,4R)-1-((S)-2-(4-((1r,3S)-3-((4-(4′-bromo-5′-oxo-5′H-spiro[cyclohexane-1,7′-indolo[1,2-a]quinazolin]-9′-yl)piperidin-1-yl)methyl)cyclobutyl)-1H-1,2,3-triazol-1-yl)-3,3-dimethylbutanoyl)-4-hydroxy-N—((S)-1-(4-(4-methylthiazol-5-yl)phenyl)ethyl)pyrrolidine-2-carboxamide]
SMARC A4 Hela HiBit Dmax(%) (SMARCA4; [1]): A (A (>90% degradation))
DC50 (SMARCA4): < 100 nM
SMARC A2 Hela HiBit Dmax (%) (SMARCA2; [2]): A (A (>90% degradation))
DC50 (SMARCA2): < 100 nM

Cc1ncsc1-c1ccc([C@@H](NC(=O)[C@@H]2C[C@@H](O)CN2C(=O)[C@@H](n2cc(C3CC3)nn2)C(C)(C)C)C(=O)N2CCC(N3CCC(c4ccc5c(c4)-n4c(nc(=O)c6c(Br)cccc64)C54CCCCC4)CC3)CC2)cc1 [Compound A138, (2S,4R)—N—((R)-2-(4-(4′-bromo-5′-oxo-5′H-spiro[cyclohexane-1,7′-indolo[1,2-a]quinazolin]-10′-yl)-[1,4′-bipiperidin]-1′-yl)-1-(4-(4-methylthiazol-5-yl)phenyl)-2-oxoethyl)-1-((S)-2-(4-cyclopropyl-1H-1,2,3-triazol-1-yl)-3,3-dimethylbutanoyl)-4-hydroxypyrrolidine-2-carboxamide]
DC50 (SMARCA4; [1]): < 10 nM
Dmax (SMARCA4; [3]): > 90%
DC50 (SMARCA2; [2]): < 10 nM
Dmax (SMARCA2; [2]): > 90%

Cc1ncsc1-c1ccc([C@H](C)NC(=O)[C@@H]2C[C@@H](O)CN2C(=O)[C@@H](n2cc([C@H]3CC[C@H](CN4CCC(c5ccc6c(n5)-n5c(nc(=O)c7c(Cl)cccc75)C65CCCCC5)CC4)CC3)nn2)C(C)(C)C)cc1 [Compound A78, (2S,4R)-1-((S)-2-(4-((1r,4S)-4-((4-(4′-chloro-5′-oxo-5′H-spiro[cyclohexane-1,7′-pyrido[3′,2′: 4,5]pyrrolo[1,2-a]quinazolin]-10′-yl)piperidin-1-yl)methyl)cyclohexyl)-1H-1,2,3-triazol-1-yl)-3,3-dimethylbutanoyl)-4-hydroxy-N—((S)-1-(4-(4-methylthiazol-5-yl)phenyl)ethyl)pyrrolidine-2-carboxamide]
DC50 (SMARCA4; [1]): > 1000 nM
Dmax (SMARCA2; HeLa): 70 to 90%
DC50 (SMARCA2; [2]): 10 to 100 nM

Cc1ncsc1-c1ccc([C@H](C)NC(=O)[C@@H]2C[C@@H](O)CN2C(=O)[C@@H](n2cc(CCCCN3CCC(c4ccc5c(c4)C4(CCCCC4)c4nc(=O)c6c(Br)cccc6n4-5)CC3)nn2)C(C)(C)C)cc1 [Compound A56, (2S,4R)-1-((S)-2-(4-(4-(4-(4′-bromo-5′-oxo-5′H-spiro[cyclohexane-1,7′-indolo[1,2-a]quinazolin]-9′-yl)piperidin-1-yl)butyl)-1H-1,2,3-triazol-1-yl)-3,3-dimethylbutanoyl)-4-hydroxy-N—((S)-1-(4-(4-methylthiazol-5-yl)phenyl)ethyl)pyrrolidine-2-carboxamide]
DC50 (SMARCA4; [1]): < 100 nM
Dmax (SMARCA4; [4]): > 90%
DC50 (SMARCA2; [2]): < 100 nM
Dmax (SMARCA2; [2]): > 90%

Cc1ncsc1-c1ccc([C@H](CN2CCOCC2)NC(=O)[C@@H]2C[C@@H](O)CN2C(=O)[C@H](C2CCCCC2)n2cc([C@H]3CC[C@H](CN4CCC(c5ccc6c(c5)-n5c(nc(=O)c7c(Cl)cccc75)C6(C)C)CC4)CC3)nn2)cc1 [Compound A125, (2S,4R)-1-((S)-2-(4-((1r,4S)-4-((4-(4-chloro-7,7-dimethyl-5-oxo-5,7-dihydroindolo[1,2-a]quinazolin-10-yl)piperidin-1-yl)methyl)cyclohexyl)-1H-1,2,3-triazol-1-yl)-2-cyclohexylacetyl)-4-hydroxy-N—((R)-1-(4-(4-methylthiazol-5-yl)phenyl)-2-morpholinoethyl)pyrrolidine-2-carboxamide]
SMARC A4 Hela HiBit DC50(nM) (SMARCA4; [1]): No fit
Dmax (SMARCA4; [3]): 50 to 69%
DC50 (SMARCA2; [2]): < 10 nM
Dmax (SMARCA2; [2]): > 90%

Cc1ncsc1-c1ccc([C@H](C)NC(=O)[C@@H]2C[C@@H](O)CN2C(=O)[C@@H](n2cc(C3(CCN4CCC(c5ccc6c(c5)-n5c(nc(=O)c7c(Br)cccc75)C65CCCCC5)CC4)CC3)nn2)C(C)(C)C)cc1 [Compound A65, (2S,4R)-1-((S)-2-(4-(1-(2-(4-(4′-bromo-5′-oxo-5′H-spiro[cyclohexane-1,7′-indolo[1,2-a]quinazolin]-10′-yl)piperidin-1-yl)ethyl)cyclopropyl)-1H-1,2,3-triazol-1-yl)-3,3-dimethylbutanoyl)-4-hydroxy-N—((S)-1-(4-(4-methylthiazol-5-yl)phenyl)ethyl)pyrrolidine-2-carboxamide]
SMARC A4 Hela HiBit Dmax(%) (SMARCA4; [1]): A (A (>90% degradation))
DC50 (SMARCA4): < 100 nM
SMARC A2 Hela HiBit Dmax (%) (SMARCA2; [2]): A (A (>90% degradation))
DC50 (SMARCA2): < 100 nM

Cc1ncsc1-c1ccc([C@H](CCCCCN2CCC(c3ccc4c(c3)C3(CCCCC3)c3nc(=O)c5c(Br)cccc5n3-4)CC2)NC(=O)[C@@H]2C[C@@H](O)CN2C(=O)[C@@H](NC(=O)C2(CN(C)C)CC2)C(C)(C)C)cc1 [Compound A18, (2S,4R)—N—((S)-6-(4-(4′-bromo-5′-oxo-5′H-spiro[cyclohexane-1,7′-indolo[1,2-a]quinazolin]-9′-yl)piperidin-1-yl)-1-(4-(4-methylthiazol-5-yl)phenyl)hexyl)-1-((S)-2-(1-((dimethylamino)methyl)cyclopropane-1-carboxamido)-3,3-dimethylbutanoyl)-4-hydroxypyrrolidine-2-carboxamide]
SMARC A4 Hela HiBit Dmax(%) (SMARCA4; [1]): B (B (70-90% degradation))
DC50 (SMARCA4): < 100 nM
SMARC A2 Hela HiBit Dmax (%) (SMARCA2; [2]): B (B (70-90% degradation))
DC50 (SMARCA2): < 100 nM

Cc1ncsc1-c1ccc([C@@H](NC(=O)[C@@H]2C[C@@H](O)CN2C(=O)[C@@H](n2cc(C3CC3)nn2)C(C)(C)C)C(=O)N2CCC3(CCC(N4CCC(c5ccc6c(c5)-n5c(nc(=O)c7c(Br)cccc75)C65CCCCC5)CC4)CC3)CC2)cc1 [Compound A139, (2S,4R)—N—((R)-2-(9-(4-(4′-bromo-5′-oxo-5′H-spiro[cyclohexane-1,7′-indolo[1,2-a]quinazolin]-10′-yl)piperidin-1-yl)-3-azaspiro[5.5]undecan-3-yl)-1-(4-(4-methylthiazol-5-yl)phenyl)-2-oxoethyl)-1-((S)-2-(4-cyclopropyl-1H-1,2,3-triazol-1-yl)-3,3-dimethylbutanoyl)-4-hydroxypyrrolidine-2-carboxamide]
DC50 (SMARCA4; [1]): < 10 nM
Dmax (SMARCA4; [3]): 70 to 90%
DC50 (SMARCA2; [2]): < 10 nM
Dmax (SMARCA2; [2]): > 90%

CC1(C)c2ccc(C3CCN(C[C@H]4CC[C@H](c5cn([C@H](C(=O)N6C[C@H](O)C[C@H]6C(=O)N[C@@H](CN6CCOCC6)c6ccc(-c7scnc7C(=O)O)cc6)C6CCOCC6)nn5)CC4)CC3)cc2-n2c1nc(=O)c1c(Cl)cccc12 [Compound A133, 5-(4-((R)-1-((2S,4R)-1-((S)-2-(4-((1r,4S)-4-((4-(4-chloro-7,7-dimethyl-5-oxo-5,7-dihydroindolo[1,2-a]quinazolin-10-yl)piperidin-1-yl)methyl)cyclohexyl)-1H-1,2,3-triazol-1-yl)-2-(tetrahydro-2H-pyran-4-yl)acetyl)-4-hydroxypyrrolidine-2-carboxamido)-2-morpholinoethyl)phenyl)thiazole-4-carboxylic acid]
DC50 (SMARCA4; [1]): > 1000 nM
Dmax (SMARCA4; [3]): < 50%
DC50 (SMARCA2; [2]): 100 to 1000 nM
Dmax (SMARCA2; [2]): 70 to 90%

Cc1ncsc1-c1ccc([C@@H](C)NC(=O)[C@@H]2C[C@@H](O)CN2C(=O)C(c2cc(N3CCC(CN4CCC(c5ccc6c(c5)C5(CCCCC5)c5nc(=O)c7c(Br)cccc7n5-6)CC4)CC3)no2)C(C)C)cc1 (stereo partly drawn) [Compound A59, (2S,4R)-1-(2-(3-(4-((4-(4′-bromo-5′-oxo-5′H-spiro[cyclohexane-1,7′-indolo[1,2-a]quinazolin]-9′-yl)piperidin-1-yl)methyl)piperidin-1-yl)isoxazol-5-yl)-3-methylbutanoyl)-4-hydroxy-N—((R)-1-(4-(4-methylthiazol-5-yl)phenyl)ethyl)pyrrolidine-2-carboxamide]
DC50 (SMARCA4; [1]): > 1000 nM
Dmax (SMARCA4; [4]): < 50%
DC50 (SMARCA2; [2]): < 100 nM
Dmax (SMARCA2; [2]): 70 to 90%
